Laboratory results as given in article PMC11222147, “Host defence peptide plectasin targets bacterial cell wall precursor lipid II by a calcium-sensitive supramolecular mechanism” (Nature Microbiology, 2024).
Values after ≈ are worked out from the molar mass of the structure shown. Where a SMILES comes first, the peptide text is derived from it. Bridges are numbered along the chain shown (N, C = ends).

Test system: S. simulans 22
Test: MIC assays under standard conditions
Type: cell-based, Staphylococcus simulans
Settings: for Minimum inhibitory concentration, S. simulans: Supplementary Table 1, 16–20 h
Description: Plectasin and analogues were serially diluted in cation-adjusted Mueller–Hinton broth (MHB) in round-bottom polypropylene 96-well plates (50 µl per well). Selected bacterial strains were grown from glycerol stocks on blood agar plates. Individual colonies were inoculated in TSB and incubated at 37 °C while shaking until OD600 reached 0.5. Bacterial suspensions were then diluted 100 times in cation-adjusted MHB and distributed (50 μl per well) over the microplate containing the diluted plectasin solutions. Plates were covered by a gas-permeable adhesive membrane and incubated at 37 °C while shaking. MICs were determined by visual inspection after 16–20 h (Staphylococcus) or 20–24 h (Streptococcus). For Streptococcus strains, the broth was additionally supplemented with 5% lysed horse blood, and the microplates were incubated under 5% CO2 atmosphere. In the assays, we used the following strains: S. simulans, S. pneumoniae serotype 8, S. pneumoniae ATCC6305 and Streptococcus pyogenes M3.

Structure (SMILES)	Minimum inhibitory concentration, S. simulans (cation-adjusted MHB, 37 °C)	reduction in activity vs plectasin (from MIC of Table 1)	MIC (standard conditions, cation-adjusted MHB, 37 °C, visual inspection after 16–20 h) [µg/mL]
CSCC[C@@H]1NC(=O)[C@H](CC(=O)O)NC(=O)[C@H](CC(=O)O)NC(=O)[C@H](CCC(=O)O)NC(=O)[C@H](CC(=O)O)NC(=O)[C@H](Cc2c[nH]c3ccccc23)NC(=O)[C@@H]2CCCN2C(=O)CNC(=O)[C@H](CC(N)=O)NC(=O)[C@@H](NC(=O)CNC(=O)[C@H](Cc2ccccc2)NC(=O)CN)CSSC[C@@H]2NC(=O)[C@H](Cc3ccc(O)cc3)NC(=O)CNC(=O)CNC(=O)[C@H](CCCCN)NC(=O)[C@H](Cc3ccc(O)cc3)NC(=O)CNC(=O)[C@H](CCCCN)NC(=O)[C@H](CC(=O)O)NC(=O)[C@H](CO)NC(=O)[C@H](CCCCN)NC(=O)[C@@H]3CSSC[C@@H](C(=O)N[C@@H](Cc4ccc(O)cc4)C(=O)O)NC(=O)[C@H](CCCCN)NC(=O)[C@H](CSSC[C@H](NC(=O)[C@H](CCC(N)=O)NC1=O)C(=O)N[C@@H](Cc1c[nH]cn1)C(=O)N[C@@H](CC(N)=O)C(=O)N[C@@H](Cc1c[nH]cn1)C(=O)N3)NC(=O)[C@H](C(C)C)NC(=O)[C@H](Cc1ccccc1)NC(=O)CNC(=O)CNC(=O)[C@H](CCCCN)NC(=O)[C@H](C)NC2=O [I22D] (H-GFGCNGPWDEDDMQCHNHCKSDKGYKGGYCAKGGFVCKCY-OH; disulfide 4-30, 15-37, 19-39 (inferred); N-terminus and C-terminus assumed)	> 50 µg/mL	–	–
CSCC[C@@H]1NC(=O)[C@H](CC(=O)O)NC(=O)[C@H](CC(=O)O)NC(=O)[C@H](CCC(=O)O)NC(=O)[C@H](CC(=O)O)NC(=O)[C@H](Cc2c[nH]c3ccccc23)NC(=O)[C@@H]2CCCN2C(=O)CNC(=O)[C@H](CC(N)=O)NC(=O)[C@@H](NC(=O)CNC(=O)[C@H](Cc2ccccc2)NC(=O)CN)CSSC[C@@H]2NC(=O)[C@H](Cc3ccc(O)cc3)NC(=O)CNC(=O)CNC(=O)[C@H](CCCCN)NC(=O)[C@H](Cc3ccc(O)cc3)NC(=O)CNC(=O)[C@H](CCCCN)NC(=O)[C@H](Cc3ccccc3)NC(=O)[C@H](CO)NC(=O)[C@H](CCCCN)NC(=O)[C@@H]3CSSC[C@@H](C(=O)N[C@@H](Cc4ccc(O)cc4)C(=O)O)NC(=O)[C@H](CCCCN)NC(=O)[C@H](CSSC[C@H](NC(=O)[C@H](CCC(N)=O)NC1=O)C(=O)N[C@@H](Cc1c[nH]cn1)C(=O)N[C@@H](CC(N)=O)C(=O)N[C@@H](Cc1c[nH]cn1)C(=O)N3)NC(=O)[C@H](C(C)C)NC(=O)[C@H](Cc1ccccc1)NC(=O)CNC(=O)CNC(=O)[C@H](CCCCN)NC(=O)[C@H](C)NC2=O [I22F] (H-GFGCNGPWDEDDMQCHNHCKSFKGYKGGYCAKGGFVCKCY-OH; disulfide 4-30, 15-37, 19-39 (inferred); N-terminus and C-terminus assumed)	> 50 µg/mL	–	–
CSCC[C@@H]1NC(=O)[C@H](CC(=O)O)NC(=O)[C@H](CC(=O)O)NC(=O)[C@H](CCC(=O)O)NC(=O)[C@H](CC(=O)O)NC(=O)[C@H](Cc2c[nH]c3ccccc23)NC(=O)[C@@H]2CCCN2C(=O)CNC(=O)[C@H](CC(N)=O)NC(=O)[C@@H](NC(=O)CNC(=O)[C@H](Cc2ccccc2)NC(=O)CN)CSSC[C@@H]2NC(=O)[C@H](Cc3ccc(O)cc3)NC(=O)CNC(=O)CNC(=O)[C@H](CCCCN)NC(=O)[C@H](Cc3ccc(O)cc3)NC(=O)CNC(=O)[C@H](CCCCN)NC(=O)[C@H](CC(C)C)NC(=O)[C@H](CO)NC(=O)[C@H](CCCCN)NC(=O)[C@@H]3CSSC[C@@H](C(=O)N[C@@H](Cc4ccc(O)cc4)C(=O)O)NC(=O)[C@H](CCCCN)NC(=O)[C@H](CSSC[C@H](NC(=O)[C@H](CCC(N)=O)NC1=O)C(=O)N[C@@H](Cc1c[nH]cn1)C(=O)N[C@@H](CC(N)=O)C(=O)N[C@@H](Cc1c[nH]cn1)C(=O)N3)NC(=O)[C@H](C(C)C)NC(=O)[C@H](Cc1ccccc1)NC(=O)CNC(=O)CNC(=O)[C@H](CCCCN)NC(=O)[C@H](C)NC2=O [I22L] (H-GFGCNGPWDEDDMQCHNHCKSLKGYKGGYCAKGGFVCKCY-OH; disulfide 4-30, 15-37, 19-39 (inferred); N-terminus and C-terminus assumed)	1,56 μg/mL	–	–
CSCC[C@@H]1NC(=O)[C@H](CC(=O)O)NC(=O)[C@H](CC(=O)O)NC(=O)[C@H](CCC(=O)O)NC(=O)[C@H](CC(=O)O)NC(=O)[C@H](Cc2c[nH]c3ccccc23)NC(=O)[C@@H]2CCCN2C(=O)CNC(=O)[C@H](CC(N)=O)NC(=O)[C@@H](NC(=O)CNC(=O)[C@H](Cc2ccccc2)NC(=O)CN)CSSC[C@@H]2NC(=O)[C@H](Cc3ccc(O)cc3)NC(=O)CNC(=O)CNC(=O)[C@H](CCCCN)NC(=O)[C@H](Cc3ccc(O)cc3)NC(=O)CNC(=O)[C@H](CCCCN)NC(=O)[C@H](C(C)C)NC(=O)[C@H](CO)NC(=O)[C@H](CCCCN)NC(=O)[C@@H]3CSSC[C@@H](C(=O)N[C@@H](Cc4ccc(O)cc4)C(=O)O)NC(=O)[C@H](CCCCN)NC(=O)[C@H](CSSC[C@H](NC(=O)[C@H](CCC(N)=O)NC1=O)C(=O)N[C@@H](Cc1c[nH]cn1)C(=O)N[C@@H](CC(N)=O)C(=O)N[C@@H](Cc1c[nH]cn1)C(=O)N3)NC(=O)[C@H](C(C)C)NC(=O)[C@H](Cc1ccccc1)NC(=O)CNC(=O)CNC(=O)[C@H](CCCCN)NC(=O)[C@H](C)NC2=O [I22V] (H-GFGCNGPWDEDDMQCHNHCKSVKGYKGGYCAKGGFVCKCY-OH; disulfide 4-30, 15-37, 19-39 (inferred); N-terminus and C-terminus assumed)	1,56 μg/mL	–	–
CC[C@H](C)[C@@H]1NC(=O)[C@H](CO)NC(=O)[C@H](CCCCN)NC(=O)[C@@H]2CSSC[C@@H](C(=O)N[C@@H](Cc3ccc(O)cc3)C(=O)O)NC(=O)[C@H](CCCCN)NC(=O)[C@@H]3CSSC[C@H](NC(=O)[C@H](CCC(N)=O)NC(=O)[C@H](CCSC)NC(=O)[C@H](CC(=O)O)NC(=O)[C@H](CC(=O)O)NC(=O)[C@H](CCC(=O)O)NC(=O)[C@H](CC(=O)O)NC(=O)[C@H](Cc4c[nH]c5ccccc45)NC(=O)[C@@H]4CCCN4C(=O)CNC(=O)[C@H](CC(N)=O)NC(=O)[C@@H](NC(=O)CNC(=O)[C@H](Cc4ccccc4)NC(=O)CN)CSSC[C@H](NC(=O)[C@H](Cc4ccc(O)cc4)NC(=O)CNC(=O)CNC(=O)[C@H](CCCCN)NC(=O)[C@H](Cc4ccc(O)cc4)NC(=O)CNC(=O)[C@H](C)NC1=O)C(=O)N[C@@H](C)C(=O)N[C@@H](CCCCN)C(=O)NCC(=O)NCC(=O)N[C@@H](Cc1ccccc1)C(=O)N[C@@H](C(C)C)C(=O)N3)C(=O)N[C@@H](Cc1c[nH]cn1)C(=O)N[C@@H](CC(N)=O)C(=O)N[C@@H](Cc1c[nH]cn1)C(=O)N2 [K23A] (H-GFGCNGPWDEDDMQCHNHCKSIAGYKGGYCAKGGFVCKCY-OH; disulfide 4-30, 15-37, 19-39 (inferred); N-terminus and C-terminus assumed)	–	fivefold to tenfold	6.25 (≈ 1.44 µM)
CC[C@H](C)[C@@H]1NC(=O)[C@H](CO)NC(=O)[C@H](CCCCN)NC(=O)[C@@H]2CSSC[C@@H](C(=O)N[C@@H](Cc3ccc(O)cc3)C(=O)O)NC(=O)[C@H](CCCCN)NC(=O)[C@@H]3CSSC[C@H](NC(=O)[C@H](CCC(N)=O)NC(=O)[C@H](CCSC)NC(=O)[C@H](CC(=O)O)NC(=O)[C@H](CC(=O)O)NC(=O)[C@H](CCC(=O)O)NC(=O)[C@H](CC(=O)O)NC(=O)[C@H](Cc4c[nH]c5ccccc45)NC(=O)[C@@H]4CCCN4C(=O)CNC(=O)[C@H](CC(N)=O)NC(=O)[C@@H](NC(=O)CNC(=O)[C@H](Cc4ccccc4)NC(=O)CN)CSSC[C@H](NC(=O)[C@H](Cc4ccc(O)cc4)NC(=O)CNC(=O)CNC(=O)[C@H](CCCCN)NC(=O)[C@H](Cc4c[nH]cn4)NC(=O)CNC(=O)[C@H](CCCCN)NC1=O)C(=O)N[C@@H](C)C(=O)N[C@@H](CCCCN)C(=O)NCC(=O)NCC(=O)N[C@@H](Cc1ccccc1)C(=O)N[C@@H](C(C)C)C(=O)N3)C(=O)N[C@@H](Cc1c[nH]cn1)C(=O)N[C@@H](CC(N)=O)C(=O)N[C@@H](Cc1c[nH]cn1)C(=O)N2 [Y25H] (H-GFGCNGPWDEDDMQCHNHCKSIKGHKGGYCAKGGFVCKCY-OH; disulfide 4-30, 15-37, 19-39 (inferred); N-terminus and C-terminus assumed)	≤ 0.78 µg/mL	–	–
CC[C@H](C)[C@@H]1NC(=O)CNC(=O)[C@H](CCCCN)NC(=O)[C@H]([C@@H](C)CC)NC(=O)[C@H](CO)NC(=O)[C@H](CCCCN)NC(=O)[C@@H]2CSSC[C@@H](C(=O)N[C@@H](Cc3ccc(O)cc3)C(=O)O)NC(=O)[C@H](CCCCN)NC(=O)[C@@H]3CSSC[C@H](NC(=O)[C@H](CCC(N)=O)NC(=O)[C@H](CCSC)NC(=O)[C@H](CC(=O)O)NC(=O)[C@H](CC(=O)O)NC(=O)[C@H](CCC(=O)O)NC(=O)[C@H](CC(=O)O)NC(=O)[C@H](Cc4c[nH]c5ccccc45)NC(=O)[C@@H]4CCCN4C(=O)CNC(=O)[C@H](CC(N)=O)NC(=O)[C@@H](NC(=O)CNC(=O)[C@H](Cc4ccccc4)NC(=O)CN)CSSC[C@H](NC(=O)[C@H](Cc4ccc(O)cc4)NC(=O)CNC(=O)CNC(=O)[C@H](CCCCN)NC1=O)C(=O)N[C@@H](C)C(=O)N[C@@H](CCCCN)C(=O)NCC(=O)NCC(=O)N[C@@H](Cc1ccccc1)C(=O)N[C@@H](C(C)C)C(=O)N3)C(=O)N[C@@H](Cc1c[nH]cn1)C(=O)N[C@@H](CC(N)=O)C(=O)N[C@@H](Cc1c[nH]cn1)C(=O)N2 [Y25I] (H-GFGCNGPWDEDDMQCHNHCKSIKGIKGGYCAKGGFVCKCY-OH; disulfide 4-30, 15-37, 19-39 (inferred); N-terminus and C-terminus assumed)	6,25 μg/mL	–	–
